Source: patent publication US20240148821A1, “PHARMACEUTICAL USE OF CYCLIC PEPTIDE COMPOUND” (CHUGAI SEIYAKU KABUSHIKI KAISHA, priority 2021, published 2024)
Numbered stars: 1 amine (or outer) side, 2 acyl side, 3 side chain; on linkers, the order of the positions; unused ones are H or OH. Bridge positions count the residues as written; N and C are the ends. Square brackets hold non-standard residues; d marks the D form. Peptide text beside a SMILES is read from it. * marks the point of attachment. hPhe(3,5-F2-4-CF3) = N[C@@H](CCc1cc(F)c(C(F)(F)F)c(F)c1)C(=O)O; hPhe(3-Cl-4-CF3) = N[C@@H](CCc1ccc(C(F)(F)F)c(Cl)c1)C(=O)O; hPhe(3-F,4-CF3) = N[C@@H](CCc1ccc(C(F)(F)F)c(F)c1)C(=O)O; NMeAla(4-thiazolyl) = CN[C@@H](Cc1cscn1)C(=O)O; NMePhe(4-Me) = CN[C@@H](Cc1ccc(C)cc1)C(=O)O; NMePhe(4-F) = CN[C@@H](Cc1ccc(F)cc1)C(=O)O; NMeMet(O2) = CN[C@@H](CCS(C)(=O)=O)C(=O)O; NMeGly(cPent) = CN[C@H](C(=O)O)C1CCCC1; Pro(4,4-F2) = O=C(O)[C@@H]1CC(F)(F)CN1; NMeCha = CN[C@@H](CC1CCCCC1)C(=O)O; NMeChg = CN[C@H](C(=O)O)C1CCCCC1; NMeI = CC[C@H](C)[C@H](NC)C(=O)O; dNMeF = CN[C@H](Cc1ccccc1)C(=O)O; NMeβAla = CN(CCC(=O)[*:2])[*:1]; NMeD = CN[C@@H](CC(=O)O)C(=O)O; NMeL = CN[C@@H](CC(C)C)C(=O)O; hLeu = CC(C)CC[C@H](N)C(=O)O; NMeV = CN[C@H](C(=O)O)C(C)C; d(β3hA) = C[C@@H](N)CC(=O)O; NMeS = CN[C@@H](CO)C(=O)O; NMeA = CN[C@@H](C)C(=O)O; NMeAib = CNC(C)(C)C(=O)O; Piperidide = C1CCN(*)CC1; Ac5c = NC1(C(=O)O)CCCC1; Aze = O=C(O)[C@@H]1CCN1; Abu = CC[C@H](N)C(=O)O; Sar = CNCC(=O)O

What follows are molecules tested on Human pancreatic cancer cell line AsPC-1 (G12D mutation Kras) (assay: AsPC-1 cell growth inhibition (AsPC-1 CGI)). Details: read-out: AsPC-1 cell growth inhibition, 50% growth inhibitory concentration (IC50 value); 96 hours, CellTiter-Glo, values classified in ranges.
Type: cell-based
Experimental: Test compounds were serially dilated with dimethyl sulfoxide, and 200 nL was then dispensed to a U-bottom 96-well plate using Labcyte Echo. […] The cell suspension was dispensed to a. plate containing a test compound at 100 μL per well and incubated at 37° C. in a 5% carbon dioxide gas incubator. 96 hours later, 80 μL of CellTiter-Glo (Promega) was added to each well and fluorescence was measured.

Question: For CC[C@H](C)[C@@H]1NC(=O)CCN(C)C(=O)[C@@H](Cc2ccccc2)N(C)C(=O)[C@H](C2CCCC2)N(C)C(=O)C2(CCCC2)NC(=O)[C@@H]2CCCN2C(=O)[C@H](CCc2ccc(C(F)(F)F)c(Cl)c2)NC(=O)CN(C)C(=O)[C@H](CC2CCCCC2)N(C)C(=O)CN(C)C(=O)CN(C)C1=O [Compound 753] (cyclo([Ac5c][NMeGly(cPent)][dNMeF][NMeβAla]I[Sar][Sar][NMeCha][Sar][hPhe(3-Cl-4-CF3)]P)), which IC50 is on record?
Answer: > 500 nM

Question: With CC[C@H](C)[C@@H]1NC(=O)[C@H](CC(C)C)N(C)C(=O)C[C@@H](C)NC(=O)[C@H](C2CCCC2)N(C)C(=O)[C@H](C(C)C)NC(=O)[C@@H]2CCCN2C(=O)[C@H](CCc2ccc(C(F)(F)F)c(Cl)c2)NC(=O)CN(C)C(=O)[C@H](Cc2ccc(C)cc2)N(C)C(=O)[C@@H]2CCN2C(=O)[C@H](C)N(C)C1=O [Compound 933] (cyclo([Aze][NMePhe(4-Me)][Sar][hPhe(3-Cl-4-CF3)]PV[NMeGly(cPent)][d(β3hA)][NMeL]I[NMeA])) as the molecule, how does the IC50 read?
Answer: > 500 nM

Question: With CC(C)CC[C@@H]1NC(=O)[C@H](CC(C)C)N(C)C(=O)C[C@@H](C(=O)N2CCCCC2)N(C)C(=O)[C@H](C2CCCCC2)N(C)C(=O)C2(CCCC2)NC(=O)[C@@H]2CCCN2C(=O)[C@H](CCc2ccc(C(F)(F)F)c(Cl)c2)NC(=O)CN(C)C(=O)[C@H](CC2CCCCC2)N(C)C(=O)CN(C)C(=O)CN(C)C1=O [Compound 1651] ([NMeL][hLeu][Sar][Sar][NMeCha][Sar][hPhe(3-Cl-4-CF3)]P[Ac5c][NMeChg][NMeD]-Piperidide; lactam N-11) as the molecule, how does the IC50 read?
Answer: > 500 nM

Question: How did the IC50 turn out when CC[C@@H]1NC(=O)[C@H]([C@@H](C)CC)NC(=O)[C@H](CC(C)C)N(C)C(=O)C[C@@H](C)NC(=O)[C@H](C(C)C)N(C)C(=O)C2(CCCC2)NC(=O)[C@@H]2CCCN2C(=O)[C@H](CCc2ccc(C(F)(F)F)c(Cl)c2)NC(=O)CN(C)C(=O)[C@H](CC2CCCCC2)N(C)C(=O)CN(C)C1=O [Compound 1459] (cyclo([Abu][Sar][NMeCha][Sar][hPhe(3-Cl-4-CF3)]P[Ac5c][NMeV][d(β3hA)][NMeL]I)) was run?
Answer: > 500 nM

Question: With CC[C@H](C)[C@@H]1NC(=O)[C@H](CC(C)C)N(C)C(=O)C[C@@H](C(=O)N(C)C)N(C)C(=O)[C@H]([C@@H](C)CC)N(C)C(=O)[C@H](C(C)C)NC(=O)[C@H](Cc2cscn2)N(C)C(=O)[C@H](CCc2ccc(C(F)(F)F)c(Cl)c2)NC(=O)CN(C)C(=O)[C@H](Cc2ccc(C)cc2)N(C)C(=O)[C@@H]2CCN2C(=O)[C@H](C)N(C)C1=O [Compound 982] ([NMeL]I[NMeA][Aze][NMePhe(4-Me)][Sar][hPhe(3-Cl-4-CF3)][NMeAla(4-thiazolyl)]V[NMeI][NMeD]-NMe2; lactam N-11) as the molecule, how does the IC50 read?
Answer: > 500 nM

Question: Which IC50 does the source give for CC[C@H](C)[C@@H]1NC(=O)[C@H](CC(C)C)N(C)C(=O)C[C@@H](C(=O)N2CCCCC2)N(C)C(=O)[C@H](C2CCCCC2)N(C)C(=O)C2(CCCC2)NC(=O)[C@@H]2CCCN2C(=O)[C@H](CCc2ccc(C(F)(F)F)c(Cl)c2)NC(=O)CN(C)C(=O)[C@H](CCS(C)(=O)=O)N(C)C(=O)CN(C)C(=O)CN(C)C1=O [Compound 1094] ([NMeL]I[Sar][Sar][NMeMet(O2)][Sar][hPhe(3-Cl-4-CF3)]P[Ac5c][NMeChg][NMeD]-Piperidide; lactam N-11) here?
Answer: > 500 nM

Question: How did the IC50 turn out when CC[C@H](C)[C@@H]1NC(=O)[C@H](CC(C)C)N(C)C(=O)C[C@@H](C(=O)N(C)C)N(C)C(=O)[C@H](C2CCCC2)N(C)C(=O)C2(CCCC2)NC(=O)[C@@H]2CC(F)(F)CN2C(=O)[C@H](CCc2cc(F)c(C(F)(F)F)c(F)c2)NC(=O)CN(C)C(=O)[C@H](CC2CCCCC2)N(C)C(=O)[C@@H]2CCN2C(=O)[C@H](C)N(C)C1=O [Compound 1346] ([NMeL]I[NMeA][Aze][NMeCha][Sar][hPhe(3,5-F2-4-CF3)][Pro(4,4-F2)][Ac5c][NMeGly(cPent)][NMeD]-NMe2; lactam N-11) was run?
Answer: ≤ 20 nM

Question: For CC[C@H](C)[C@@H]1NC(=O)[C@H](CC(C)C)N(C)C(=O)C[C@@H](C(=O)N2CCCCC2)N(C)C(=O)[C@H](C2CCCCC2)N(C)C(=O)C2(CCCC2)NC(=O)[C@@H]2CCCN2C(=O)[C@H](CCc2ccc(C(F)(F)F)c(Cl)c2)NC(=O)CN(C)C(=O)[C@H](COC)N(C)C(=O)CN(C)C(=O)CN(C)C1=O [Compound 623] ([NMeL]I[Sar][Sar][NMeS](Me)[Sar][hPhe(3-Cl-4-CF3)]P[Ac5c][NMeChg][NMeD]-Piperidide; lactam N-11), which IC50 is on record?
Answer: > 500 nM

Question: Which IC50 does the source give for CC[C@H](C)[C@@H]1NC(=O)[C@H](CC(C)C)N(C)C(=O)C[C@@H](C(=O)N2CCCCC2)N(C)C(=O)[C@H](CC(C)C)NC(=O)C(C)(C)N(C)C(=O)[C@H](CC(C)C)NC(=O)[C@H](CCc2ccc(C(F)(F)F)c(F)c2)NC(=O)CN(C)C(=O)[C@H](CC2CCCCC2)N(C)C(=O)CN(C)C(=O)CN(C)C1=O [Compound 969] ([NMeL]I[Sar][Sar][NMeCha][Sar][hPhe(3-F,4-CF3)]L[NMeAib]L[NMeD]-Piperidide; lactam N-11) here?
Answer: > 500 nM

Question: For CC[C@H](C)[C@@H]1NC(=O)[C@H](C)N(C)C(=O)C[C@@H](C(=O)N2CCCCC2)N(C)C(=O)[C@H](C(C)C)N(C)C(=O)C2(CCCC2)NC(=O)[C@@H]2CCCN2C(=O)[C@H](CCc2ccc(C(F)(F)F)c(Cl)c2)NC(=O)CN(C)C(=O)[C@H](Cc2ccc(F)cc2)N(C)C(=O)[C@@H]2CCCN2C(=O)CN(C)C1=O [Compound 1698] ([NMeA]I[Sar]P[NMePhe(4-F)][Sar][hPhe(3-Cl-4-CF3)]P[Ac5c][NMeV][NMeD]-Piperidide; lactam N-11), which IC50 is on record?
Answer: > 500 nM
